Assay results published in patent US20260176320A1, “MODULATORS OF G-PROTEIN COUPLED RECEPTORS” (priority 2018, published 2026).
Like-named read-outs stand apart in the source and are kept apart here. Square brackets hold non-standard residues; d marks the D form. Peptide text beside a SMILES is read from it. * marks the point of attachment. X4 = CC(C)(C(=O)NCCN1C(=O)CSC1=O)C(=O)*; Aib = CC(C)(N)C(=O)O

How the values were obtained:
Assay type in all cases: cell-based
GLP-1R [1] = molecular target: T1, GLP-1R (Homo sapiens, UniProt P43220); assay: PathHunter β-arrestin assay
Procedure, shortened: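 Following a 90 min agonist exposure at 37 °C in 0.2% BSA medium, β-arrestin coupling was detected by chemiluminescence after 3 h at room temperature.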

GLP-1R [2] = molecular target: T1, GLP-1R; assay: HitHunter cAMP assay (GLP-1R); conditions: cAMP; for Emax: read-out: (Emax) GLP-1R
Procedure, shortened: (§1)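 Duplicate 22-point, 2-fold agonist titrations applied to receptor-expressing suspension cells in IBMX-containing HBSS; 30 min RT stimulation. Read: luminescent cAMP immunocompetition after O/N dark incubation.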

GIP-R = molecular target: T2, GIP-R (Homo sapiens, UniProt P48546); assay: HitHunter cAMP assay (GIP-R); conditions: cAMP; for Emax: read-out: (Emax) GIP-R
T2 sequence (P48546 22-466): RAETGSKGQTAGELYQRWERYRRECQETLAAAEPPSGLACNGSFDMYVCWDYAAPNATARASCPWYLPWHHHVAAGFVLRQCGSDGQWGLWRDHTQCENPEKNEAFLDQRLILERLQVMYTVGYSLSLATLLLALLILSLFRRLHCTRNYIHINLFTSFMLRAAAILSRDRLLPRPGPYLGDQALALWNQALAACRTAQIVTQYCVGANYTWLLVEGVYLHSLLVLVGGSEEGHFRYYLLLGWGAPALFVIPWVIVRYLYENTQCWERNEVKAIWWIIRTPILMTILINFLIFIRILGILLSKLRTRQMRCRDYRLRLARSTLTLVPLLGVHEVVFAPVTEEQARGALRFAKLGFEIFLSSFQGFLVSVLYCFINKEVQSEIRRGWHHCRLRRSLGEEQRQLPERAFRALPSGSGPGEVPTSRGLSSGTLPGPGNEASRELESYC
Procedure, shortened: as §1

[3] = PathHunter β-arrestin assay, read-out: β-arrestin activity EC50
[4] = Table 3, read-out: EC50 GLP-1R/nM
[5] = Table 3A, read-out: EC50 GLP-1R/nM
[6] = Table 3, read-out: EC50 GIP-R/nM
[7] = Table 3A, read-out: EC50 GIP-R/nM

T1 sequence (P43220 24-463): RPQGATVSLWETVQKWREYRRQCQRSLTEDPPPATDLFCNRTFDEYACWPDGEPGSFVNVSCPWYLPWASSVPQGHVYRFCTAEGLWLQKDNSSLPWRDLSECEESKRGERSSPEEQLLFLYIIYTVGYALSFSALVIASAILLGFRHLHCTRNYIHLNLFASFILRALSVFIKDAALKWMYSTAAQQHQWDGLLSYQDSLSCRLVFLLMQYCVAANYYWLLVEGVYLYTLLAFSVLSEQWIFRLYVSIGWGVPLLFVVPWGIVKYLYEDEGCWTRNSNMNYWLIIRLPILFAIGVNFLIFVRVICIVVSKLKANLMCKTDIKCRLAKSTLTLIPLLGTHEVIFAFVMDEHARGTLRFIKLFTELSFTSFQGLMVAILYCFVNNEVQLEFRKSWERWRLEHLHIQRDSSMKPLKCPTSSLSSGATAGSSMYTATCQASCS

## CCCCCCCCCCCCCCCC(=O)N[C@@H](CCC(=O)NCCCC[C@H](NC(=O)[C@H](CO)NC(=O)[C@@H]1CCCN1C(=O)[C@@H]1CCCN1C(=O)[C@@H]1CCCN1C(=O)[C@H](C)NC(=O)CNC(=O)[C@H](CO)NC(=O)[C@H](CO)NC(=O)[C@@H]1CCCN1C(=O)CNC(=O)CNC(=O)[C@H](C)NC(=O)[C@H](CC(C)C)NC(=O)[C@H](CC(C)C)NC(=O)[C@H](Cc1c[nH]c2ccccc12)NC(=O)[C@H](CC(N)=O)NC(=O)[C@@H](NC(=O)[C@H](Cc1ccccc1)NC(=O)[C@H](CCC(=O)O)NC(=O)C(C)(C)NC(=O)[C@H](C)NC(=O)[C@H](C)NC(=O)[C@H](CCC(N)=O)NC(=O)[C@H](CCCCN)NC(=O)[C@H](CC(=O)O)NC(=O)[C@H](CC(C)C)NC(=O)[C@H](Cc1ccc(O)cc1)NC(=O)[C@@H](NC(=O)[C@H](CO)NC(=O)[C@H](Cc1ccc(O)cc1)NC(=O)[C@H](CC(=O)O)NC(=O)[C@H](CO)NC(=O)[C@@H](NC(=O)[C@H](Cc1ccccc1)NC(=O)[C@@H](NC(=O)CNC(=O)[C@H](CCC(=O)O)NC(=O)CCCC(=O)NCCN1CCCCC1=O)[C@@H](C)O)[C@@H](C)O)[C@@H](C)CC)C(C)C)C(N)=O)C(=O)O [Compound 27]
GLP-1R [1]; [3]
  EC50: > 1000 nM
GLP-1R [2]; Table 3
  Emax: 95%
GLP-1R [2]; [4]
  EC50: 0.1 to 1 nM
GLP-1R [2]; Table 3A
  Emax: 95%
GLP-1R [2]; [5]
  EC50: 0.1 to 1 nM
GIP-R; Table 3
  Emax: 45%
GIP-R; [6]
  EC50: 1 to 10 nM
GIP-R; Table 3A
  Emax: 45%
GIP-R; [7]
  EC50: 1 to 10 nM

## CC[C@H](C)[C@H](NC(=O)[C@H](CO)NC(=O)[C@H](Cc1ccc(O)cc1)NC(=O)[C@H](CC(=O)O)NC(=O)[C@H](CO)NC(=O)[C@@H](NC(=O)[C@H](Cc1ccccc1)NC(=O)[C@@H](NC(=O)CNC(=O)[C@H](CCC(=O)O)NC(=O)C(C)(C)C(=O)NCCN1C(=O)CSC1=O)[C@@H](C)O)[C@@H](C)O)C(=O)N[C@@H](Cc1ccc(O)cc1)C(=O)N[C@@H](CC(C)C)C(=O)N[C@@H](CC(=O)O)C(=O)N[C@@H](CCCCN)C(=O)N[C@@H](CCC(N)=O)C(=O)N[C@@H](C)C(=O)N[C@H](C(=O)NC(C)(C)C(=O)N[C@@H](CCC(=O)O)C(=O)N[C@@H](Cc1ccccc1)C(=O)N[C@H](C(=O)N[C@@H](CC(N)=O)C(=O)N[C@@H](Cc1c[nH]c2ccccc12)C(=O)N[C@@H](CC(C)C)C(=O)N[C@@H](CC(C)C)C(=O)N[C@@H](C)C(=O)NCC(=O)NCC(=O)N1CCC[C@H]1C(=O)N[C@@H](CO)C(=O)N[C@@H](CO)C(=O)NCC(=O)N[C@@H](C)C(=O)N1CCC[C@H]1C(=O)N1CCC[C@H]1C(=O)N1CCC[C@H]1C(=O)N[C@@H](CO)C(=O)N[C@@H](CCCCN)C(N)=O)[C@@H](C)CC)C(C)C [Compound 132] (X4-EGTFTSDYSIYLDKQAV[Aib]EFINWLLAGGPSSGAPPPSK-NH2)
GLP-1R [1]; [3]
  EC50: 10 to 1000 nM
GLP-1R [2]; Table 3
  Emax: 103 to 114%
GLP-1R [2]; [4]
  EC50: < 0.1 nM
GLP-1R [2]; Table 3A
  Emax: 103 to 114%
GLP-1R [2]; [5]
  EC50: < 0.1 nM
GIP-R; Table 3
  Emax: 61 to 64%
GIP-R; [6]
  EC50: 1 to 10 nM
GIP-R; Table 3A
  Emax: 61 to 64%
GIP-R; [7]
  EC50: 1 to 10 nM

## CCCCCCCCCCCCCCCC(=O)N[C@@H](CCC(=O)NCCCC[C@H](NC(=O)[C@H](CO)NC(=O)[C@@H]1CCCN1C(=O)[C@@H]1CCCN1C(=O)[C@@H]1CCCN1C(=O)[C@H](C)NC(=O)CNC(=O)[C@H](CO)NC(=O)[C@H](CO)NC(=O)[C@@H]1CCCN1C(=O)CNC(=O)CNC(=O)[C@H](C)NC(=O)[C@H](CC(C)C)NC(=O)[C@H](CC(C)C)NC(=O)[C@H](Cc1c[nH]c2ccccc12)NC(=O)[C@H](CC(N)=O)NC(=O)[C@@H](NC(=O)[C@H](Cc1ccccc1)NC(=O)[C@H](CCC(=O)O)NC(=O)C(C)(C)NC(=O)[C@H](C)NC(=O)[C@H](C)NC(=O)[C@H](CCC(N)=O)NC(=O)[C@H](CCCCN)NC(=O)[C@H](CC(=O)O)NC(=O)[C@H](CC(C)C)NC(=O)[C@H](Cc1ccc(O)cc1)NC(=O)[C@@H](NC(=O)[C@H](CO)NC(=O)[C@H](Cc1ccc(O)cc1)NC(=O)[C@H](CC(=O)O)NC(=O)[C@H](CO)NC(=O)[C@@H](NC(=O)[C@H](Cc1ccccc1)NC(=O)[C@@H](NC(=O)CNC(=O)[C@H](CCC(=O)O)NC(=O)CSCC(=O)NCCN1CCCCS1(=O)=O)[C@@H](C)O)[C@@H](C)O)[C@@H](C)CC)C(C)C)C(N)=O)C(=O)O [Compound 40]
GLP-1R [1]
  EC50: > 1000 nM
GLP-1R [2]; EC50 GLP-1R/nM, Table 3
  EC50: 0.1 to 1 nM
GLP-1R [2]; EC50 GLP-1R/nM, Table 3A
  EC50: 0.1 to 1 nM
GLP-1R [2]; Table 3
  Emax: 101 to 105%
GLP-1R [2]; Table 3A
  Emax: 101 to 105%
GIP-R; EC50 GIP-R/nM, Table 3
  EC50: 1 to 10 nM
GIP-R; Table 3
  Emax: 14 to 34%
GIP-R; Table 3A
  Emax: 14 to 34%
GIP-R; read-out: EC50 GIP-R/nM, Table 3A
  EC50: 1 to 1000 nM

## CC[C@H](C)[C@H](NC(=O)[C@H](CO)NC(=O)[C@H](Cc1ccc(O)cc1)NC(=O)[C@H](CC(=O)O)NC(=O)[C@H](CO)NC(=O)[C@@H](NC(=O)[C@H](Cc1ccccc1)NC(=O)[C@@H](NC(=O)CNC(=O)[C@H](CCC(=O)O)NC(=O)CSCC(=O)NCCN1C(=O)c2cccnc2C1=O)[C@@H](C)O)[C@@H](C)O)C(=O)N[C@@H](Cc1ccc(O)cc1)C(=O)N[C@@H](CC(C)C)C(=O)N[C@@H](CC(=O)O)C(=O)N[C@@H](CCCCN)C(=O)N[C@@H](CCC(N)=O)C(=O)N[C@@H](C)C(=O)N[C@@H](C)C(=O)NC(C)(C)C(=O)N[C@@H](CCC(=O)O)C(=O)N[C@@H](Cc1ccccc1)C(=O)N[C@H](C(=O)N[C@@H](CC(N)=O)C(=O)N[C@@H](Cc1c[nH]c2ccccc12)C(=O)N[C@@H](CC(C)C)C(=O)N[C@@H](CC(C)C)C(=O)N[C@@H](C)C(=O)NCC(=O)NCC(=O)N1CCC[C@H]1C(=O)N[C@@H](CO)C(=O)N[C@@H](CO)C(=O)NCC(=O)N[C@@H](C)C(=O)N1CCC[C@H]1C(=O)N1CCC[C@H]1C(=O)N1CCC[C@H]1C(=O)N[C@@H](CO)C(=O)N[C@@H](CCCCN)C(N)=O)C(C)C [Compound 160]
GLP-1R [1]
  EC50: > 1000 nM
GLP-1R [2]; EC50 GLP-1R/nM, Table 3
  EC50: 1 to 10 nM
GLP-1R [2]; EC50 GLP-1R/nM, Table 3A
  EC50: 1 to 10 nM
GLP-1R [2]; Table 3
  Emax: 85 to 95%
GLP-1R [2]; Table 3A
  Emax: 85 to 95%
GIP-R; EC50 GIP-R/nM, Table 3
  EC50: 0.1 to 1 nM
GIP-R; EC50 GIP-R/nM, Table 3A
  EC50: 0.1 to 1 nM
GIP-R; Table 3
  Emax: 109 to 113%
GIP-R; Table 3A
  Emax: 109 to 113%

## CC[C@H](C)[C@H](NC(=O)[C@H](CO)NC(=O)[C@H](Cc1ccc(O)cc1)NC(=O)[C@H](CC(=O)O)NC(=O)[C@H](CO)NC(=O)[C@@H](NC(=O)[C@H](Cc1ccccc1)NC(=O)[C@@H](NC(=O)CNC(=O)[C@H](CCC(=O)O)NC(=O)CCCNC(=O)CCN1C(=O)CSC1=O)[C@@H](C)O)[C@@H](C)O)C(=O)N[C@@H](Cc1ccc(O)cc1)C(=O)N[C@@H](CC(C)C)C(=O)N[C@@H](CC(=O)O)C(=O)N[C@@H](CCCCN)C(=O)N[C@@H](CCC(N)=O)C(=O)N[C@@H](C)C(=O)N[C@@H](C)C(=O)NC(C)(C)C(=O)N[C@@H](CCC(=O)O)C(=O)N[C@@H](Cc1ccccc1)C(=O)N[C@H](C(=O)N[C@@H](CC(N)=O)C(=O)N[C@@H](Cc1c[nH]c2ccccc12)C(=O)N[C@@H](CC(C)C)C(=O)N[C@@H](CC(C)C)C(=O)N[C@@H](C)C(=O)NCC(=O)NCC(=O)N1CCC[C@H]1C(=O)N[C@@H](CO)C(=O)N[C@@H](CO)C(=O)NCC(=O)N[C@@H](C)C(=O)N1CCC[C@H]1C(=O)N1CCC[C@H]1C(=O)N1CCC[C@H]1C(=O)N[C@@H](CO)C(=O)N[C@@H](CCCCN)C(N)=O)C(C)C [Compound 165]
GLP-1R [1]; [3]
  EC50: > 1000 nM
GLP-1R [2]; Table 3
  Emax: 101 to 106%
GLP-1R [2]; [4]
  EC50: 0.1 to 1 nM
GLP-1R [2]; Table 3A
  Emax: 101 to 106%
GLP-1R [2]; [5]
  EC50: 0.1 to 1 nM
GIP-R; Table 3
  Emax: 91 to 98%
GIP-R; [6]
  EC50: 1 to 10 nM
GIP-R; Table 3A
  Emax: 91 to 98%
GIP-R; [7]
  EC50: 1 to 10 nM
